Earlier results as cited in patent US4814324A, “Sterol inhibitors of testosterone 5α-reductase” (Merck & Co., Inc., priority 1987, dated 1989).

Tests used:
[1] = test system: testosterone-5α-reductase; conditions: Voigt and Hsia, Endocrinology, 92, 1216 (1973)
[2] = test system: female hamster flank organ; conditions: Voigt and Hsia; for response elicited by 5α-dihydrotestosterone (flank organ enlargement) / response elicited by testosterone (flank organ enlargement): topical; for response elicited by 5α-dihydrotestosterone (flank organ enlargement): concomitant with 5α-dihydrotestosterone; for response elicited by testosterone (flank organ enlargement): concomitant with testosterone; for enlargement of the female hamster flank organ: topical application alone

Structure (SMILES): C[C@]12CC[C@H]3[C@@H](CCC4=CC(=O)CC[C@@]43C)[C@@H]1CC[C@@H]2C(=O)O [4-androsten-3-one-17β-carboxylic acid]
- testosterone-5α-reductase inhibition in vitro [1]: active inhibitors
- response elicited by 5α-dihydrotestosterone (flank organ enlargement) [2]: did not inhibit the response elicited by 5α-dihydrotestosterone
- response elicited by testosterone (flank organ enlargement) [2]: inhibited the response elicited by testosterone

Structure (SMILES): C[C@]12CCC(=O)C[C@@H]1CC[C@@H]1[C@@H]2CC[C@]2(C)[C@@H](O)CC[C@@H]12 [5α-dihydrotesterone, 5α-dihydrotestosterone]
- enlargement of the female hamster flank organ [2]: caused enlargement of the female hamster flank organ

Structure (SMILES): COC(=O)[C@H]1CC[C@H]2[C@@H]3CCC4=CC(=O)CC[C@]4(C)[C@H]3CC[C@]12C [methyl 4-androsten-3-one-17β-carboxylate]
- testosterone-5α-reductase inhibition in vitro [1]: active inhibitors
- response elicited by 5α-dihydrotestosterone (flank organ enlargement) [2]: did not inhibit the response elicited by 5α-dihydrotestosterone
- response elicited by testosterone (flank organ enlargement) [2]: inhibited the response elicited by testosterone

Structure (SMILES): C[C@]12CC[C@H]3[C@@H](CCC4=CC(=O)CC[C@@]43C)[C@@H]1CC[C@@H]2O [testosterone]
- enlargement of the female hamster flank organ [2]: caused enlargement of the female hamster flank organ
